Values joined by “and” are separate entries in the source; they are usually repeats but may differ in a detail not shown here. Equal entries are not always repeated.
Columns and labels:
[1] = target: T1, TcPRAC (Trypanosoma cruzi, UniProt Q4DA80); experiment: Racemisation inhibition, detection with polarimeter; assay type: biochemical
T1 construct: made in house
Protocol: (§1) The reaction was stopped by incubating for 10 min at 80° C. and freezing. Water (1 ml) was then added, and the optical rotation was measured in a polarimeter 241 MC (Perkin Elmer, Montigny le Bretonneux, France) at a wavelength of 365 nm, in a cell with a path length of 10 cm, at a precision of 0.001 degree. […] All reagents were purchased from Sigma.

[2] = target: T2, rTcPRACA (Trypanosoma cruzi, UniProt Q4DA80); experiment: Kinetic and inhibition assays of L-proline racemization, polarimetric; assay type: biochemical
T2 construct: resulting TcPRACA* fragment encoding for the mature proline racemase was purified and cloned; His6 (C); made in house; host or cells: E. coli BL21 (DE3)
Protocol: (§2) The progress of racemization reaction was monitored polarimetrically, as previously described (13). […] Values obtained were confirmed by using the Kaleïdagraph® program and Michaelis-Menten equation. […] C.
(§3) Optical rotation was measured every 5 sec during 10 min and every 5 min to 1 hour. […] Calculations were done using the Kaleïdagraph program. […] Graphic representation and linear curve regression allowed the determination of Ki as [PAC]/[(slope with PAC/slope without PAC)−1]. All reagents were purchased from Sigma.

[3] = target: rTcPRACB (Trypanosoma cruzi, UniProt Q868H8); experiment: as above; assay type: biochemical
Protocol: as §2, §3

[4] = target: T1, TcPRAC; experiment: D-AAO/HRP microplate test of racemisation inhibition; assay type: biochemical; details: concentration giving 50% inhibition of racemisation
Protocol: (1) The volumes are indicated for a single well, but duplicates are mandatory. Leave enough raws of the microplate empty for standard and controls to be used in further steps. Distribute the following volumes per well reactions: • a) without inhibitor (Vol=QS 81 μl)
A range of concentrations between 5 mM and 1 mM can be planned for the inhibitor. It should be diluted in sodium acetate buffer 0.2 M pH 6.0.
• (2) Cover the microplate with an adhesive coverlid and leave for […] at 37° C. • (3) At the end of racemisation, 5.5 μl of 0.235M Pop are added in each reaction well of the microplate in order to shift pH from pH6.0 to pH 8.3.
It is used for assessing the amount of D-Proline formed after racemization. The standard range is made in microtubes, as follows:
(§4) • (3) Prepare a mixture containing the enzymes (D-AAO/HRP Mix), as follows: The amounts are given for one well, provided that the final volume will be 100 μl with the racemase products or the substrate:
(§5) This mixture is kept in the ice until use. • (4) The quantitation reaction starts when 13 μl of D-AAO/HRP mix is added to the reaction well. • (5) The microplate is covered with an adhesive coverlid and it is left in the dark at 37° C. between […] and 2 hours. The reaction can be monitored by eye whenever a color gradient matches the D-amino acid concentration of the standard dilutions. • (6) The microplate is read with a microplate spectrophotometer using a filter of at 490 nm.

[5] = test system: B cell; details: cited from earlier work
[6] = test system: non-infected monkey cell cultures
[7] = target: T3, D-AAO (Sus scrofa, UniProt P00371); experiment: D-AAO/HRP reaction on D-proline in presence of PAC or L-proline; assay type: biochemical, swine; details: D-Proline 0.1 mM to 40 mM, OD 490 nm
T3 construct: purchased Sigma A-5222; host or cells: swine kidney

[8] = target: T3, D-AAO; experiment: D-AAO/HRP microplate test for detection of D-amino acids; assay type: biochemical, swine
Protocol: as §4, §5
The D-AAO/HRP test described here above can also be used for this purpose with slight modifications. For that purpose, the racemase reaction step should be skipped and the microplate test should start straightforward at the II-1-2.1-2 step described above with the following remarks:
1) Standard: It should not be an equimolar mixture of D- and L-amino acid, but rather a serial dilution of D-Amino acids. The choice of amino acid is made according to the interest of the D-amino acid under investigation. The final volume in wells should be of 87 μl.
2) Negative control: It is made with the L-enantiomer of the D-amino acid under investigation. The final volume should be 87 μl.
3) Blank: It is made with 87 μl buffer*. (See paragraph II.1.1 Materials.)
4) Samples: The samples to be tested should be adjusted to pH 8,3 with buffer* and their final volumes should be of 87 μl per well.
Obs: Standards, negative controls, samples to test and blanks should be made in duplicates. They are dispensed into the wells of the microplate.
5) Then, the procedure follows steps 3) to 6), as above.
Different L- and D-amino acids were tested, namely Tyrosine (Tyr), Valine (Val), Threonine (Thr), Glutamic acid (Glu), Lysine (Lys) and Tryptophan (Try).

[9] = target: T1, TcPRAC; details: cited from earlier work
[10] = Racemization assays, polarimetric; assay type: biochemical; details: for % racemization / Optical rotation: 5 μg protein, 40 mM L-proline, pH 6.0, 37° C.
Protocol: as §1
Optical rotation was measured and % of racemization was determined as described in Example 5.
Optical rotation was measured at different times and % of racemization was determined as described in Example 5.

[11] = Stability of recombinant proline racemases under different storage conditions; assay type: physicochemical
Protocol: After purification on nickel-nitrilotriacetic acid agarose column, recombinant proteins were kept for 10 days in nickel column buffer (20 mM Tris/500 mM NaCl/500 mM imidazol, pH 8.0) at room temperature (RT) or at +4° C., or either diluted in 50% glycerol and maintained at −20° C. (Gly/−20° C.) or in optimum pH buffer (NaOAc, pH 6.0) at 4° C. Recombinant enzymes were precipitated in (NH4)2SO4 and kept in solution at 4° C. or pellet dried at −20° C. Racemase assays were performed for 30 min at 37° C.

[12] = test system: Trypanosoma cruzi; experiment: Immunization of mice and infectious challenge with live Trypanosoma cruzi; assay type: in vivo; details: mice, sub-mitogenic doses
[13] = L-enantiomers, 12.5 mM, duplicate wells
[14] = D-enantiomers, 6.25 mM, duplicate wells

T3 sequence (P00371 whole entry): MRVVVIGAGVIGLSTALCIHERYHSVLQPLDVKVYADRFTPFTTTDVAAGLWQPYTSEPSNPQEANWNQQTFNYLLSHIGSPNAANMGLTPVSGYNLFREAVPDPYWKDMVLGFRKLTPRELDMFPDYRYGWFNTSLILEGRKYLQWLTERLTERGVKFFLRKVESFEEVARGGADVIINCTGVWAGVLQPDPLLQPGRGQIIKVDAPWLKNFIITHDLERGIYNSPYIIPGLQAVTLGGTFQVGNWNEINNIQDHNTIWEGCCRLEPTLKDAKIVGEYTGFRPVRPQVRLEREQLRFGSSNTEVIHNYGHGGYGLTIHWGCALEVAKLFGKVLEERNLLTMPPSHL
Chain of rTcPRACB (Q868H8 whole entry): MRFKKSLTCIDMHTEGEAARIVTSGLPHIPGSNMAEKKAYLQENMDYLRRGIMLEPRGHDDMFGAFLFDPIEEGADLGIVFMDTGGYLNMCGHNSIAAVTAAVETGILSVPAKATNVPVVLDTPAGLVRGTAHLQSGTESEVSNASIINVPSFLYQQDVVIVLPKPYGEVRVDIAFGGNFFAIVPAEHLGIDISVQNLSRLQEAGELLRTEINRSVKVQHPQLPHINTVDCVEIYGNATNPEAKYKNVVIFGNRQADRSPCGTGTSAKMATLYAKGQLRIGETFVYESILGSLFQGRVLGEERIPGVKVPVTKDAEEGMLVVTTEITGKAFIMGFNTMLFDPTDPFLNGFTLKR

O=C(O)c1ccc[nH]1 [PAC, pyrrole-2-carboxylic acid]
IC50 [1]: 1 mM
Ki [2]: 5.7 µM
Ki [3]: 3.6 µM
IC50 ([4]; 10 mM L-Proline): 45 µM and 50 µM
IC50 ([4]; 20 mM L-Proline): 170 µM
IC50 ([4]; 40 mM L-Proline): 220 µM
effect of TcPRAC inhibition on TcPRAC B cell mitogenic ability [5]: total loss
interference with cellular growth [6]: do not interfere with cellular growth
influence on DAAO/HRP reaction [7]: does not influence

N[C@@H](CCC(=O)O)C(=O)O [L-Glu, Glutamic acid]
Optical density at 490 nm [8, 13]: 0.131 and 0.141

O=C(O)CI [iodoacetate]
TcPRAC enzymatic activity after alkylation [9]: abolished

CC(C)[C@H](N)C(=O)O [D-Val, Valine]
Optical density at 490 nm [8, 14]: 1.683 and 1.612

N[C@@H](Cc1ccc(O)cc1)C(=O)O [D-Tyr, Tyrosine]
Optical density at 490 nm [8, 14]: 1.317 and 0.991

N[C@@H](Cc1c[nH]c2ccccc12)C(=O)O [D-Try, Tryptophan]
Optical density at 490 nm [8, 14]: 0.615 and 0.662

CC(C)[C@H](N)C(=O)O [L-Val, Valine]
Optical density at 490 nm [8, 13]: 0.135 and 0.129

NC(=O)CI [iodoacetamide]
TcPRAC enzymatic activity after alkylation [9]: abolished

N[C@@H](Cc1c[nH]c2ccccc12)C(=O)O [L-Try, Tryptophan]
Optical density at 490 nm [8, 13]: 0.131 and 0.138

C[C@@H](O)[C@H](N)C(=O)O [D-Thr, Threonine]
Optical density at 490 nm [8, 14]: 0.215 and 0.157

C[C@@H](O)[C@H](N)C(=O)O [L-Thr, Threonine]
Optical density at 490 nm [8, 13]: 0.124 and 0.128

N[C@@H](CCC(=O)O)C(=O)O [D-Glu, Glutamic acid]
Optical density at 490 nm [8, 14]: 0.147 and 0.116

NCCCC[C@H](N)C(=O)O [L-Lys, Lysine]
Optical density at 490 nm [8, 13]: 0.125 and 0.131

N[C@@H](Cc1ccc(O)cc1)C(=O)O [L-Tyr, Tyrosine]
Optical density at 490 nm [8, 13]: 0.193 and 0.141

NCCCC[C@H](N)C(=O)O [D-Lys, Lysine]
Optical density at 490 nm [8, 14]: 0.243 and 0.157

O=C(O)[C@H]1CCCN1 [D-pro, D-proline]
Optical density at 490 nm ([8]; 0.05 mM): 0.173
Optical density at 490 nm ([8]; 0.09 mM): 0.213 and 0.215
Optical density at 490 nm ([8]; 0.19 mM): 0.308 and 0.32
Optical density at 490 nm ([8]; 0.39 mM): 0.496 and 0.504
Optical density at 490 nm ([8]; 0.77 mM): 0.809 and 0.824
Optical density at 490 nm ([8]; 1.55 mM): 1.234 and 1.221
Optical density at 490 nm ([8]; 3.09 mM): 1.716 and 1.879
Optical density at 490 nm ([8]; 6.19 mM): 1.983 and 1.949
Optical density at 490 nm ([8]; 12.37 mM): 1.814 and 1.976
Optical density at 490 nm ([8]; 24.75 mM): 1.757 and 1.885
Optical density at 490 nm ([8]; 49.5 mM): 1.961 and 2.004

B1: rTcPRACA: recombinant C-terminal His6-tagged T. cruzi proline racemase, 45 kDa secreted isoform, produced in E. coli (protein)
chain: GQEKLLFDQKYKIIKGEKKEKKKNQRANRREHQQKREIMRFKKSFTCIDMHTEGEAARIVTSGLPHIPGSNMAEKKAYLQENMDYLRRGIMLEPRGHDDMFGAFLFDPIEEGADLGMVFMDTGGYLNMCGHNSIAAVTAAVETGIVSVPAKATNVPVVLDTPAGLVRGTAHLQSGTESEVSNASIINVPSFLYQQDVVVVLPKPYGEVRVDIAFGGNFFAIVPAEQLGIDISVQNLSRLQEAGELLRTEINRSVKVQHPQLPHINTVDCVEIYGPPTNPEANYKNVVIFGNRQADRSPCGTGTSAKMATLYAKGQLRIGETFVYESILGSLFQGRVLGEERIPGVKVPVTKDAEEGMLVVTAEITGKAFIMGFNTMLFDPTDPFKNGFTLKQ
modifications: left off: small tags and cut ends
notes: recombinant C-terminal His6-tagged T. cruzi proline racemase, 45 kDa secreted isoform, produced in E. coli
temperature of maximal enzyme activity [10]: 37 °C
% racemization ([10]; 0 min): 0%
Optical rotation ([10]; 0 min): −0.385
enzyme activity after heating ([10]; 5 min at 80° C.): abolished
% racemization ([10]; 10 min): 22%
Optical rotation ([10]; 10 min): −0.300
% racemization ([10]; 30 min): 58%
Optical rotation ([10]; 30 min): −0.162
% racemization ([10]; 60 min): 77%
Optical rotation ([10]; 60 min): −0.088
% of preservation of proline racemase activity ([11]; 10 days, 50% glycerol, −20° C. (Gly/−20° C.)): 62.9%
% of preservation of proline racemase activity ([11]; 10 days, NaOAc pH 6, 4° C.): 31.0%
% of preservation of proline racemase activity ([11]; 10 days, column buffer pH 8.0, +4° C.): 65% and 66.5%
% of preservation of proline racemase activity ([11]; 10 days, column buffer pH 8.0, RT): 16.0%
loss of activity ([11]; 10 days, room temperature, 0.5 M imidazol buffer pH 8.0): 84%
% of preservation of proline racemase activity ([11]; (NH4)2SO4 precipitated, in solution, 4° C.): 53.9%
% of preservation of proline racemase activity ([11]; (NH4)2SO4 precipitated, pellet dried, −20° C.): 100.0%
% of preservation of proline racemase activity ([11]; CTRL, freshly purified proteins): 100.0%

B2: TcPRAC: Trypanosoma cruzi proline racemase, B cell mitogen, used for immunization of mice (protein)
chain: B1 chain
modifications: left off: small tags and cut ends
notes: Trypanosoma cruzi proline racemase, B cell mitogen, used for immunization of mice
specific antibody responses directed to TcPRAC [12]: high levels of specific antibody responses
immunoprotection against infectious challenge ([12]; challenge with live Trypanosoma cruzi): high levels of immunoprotection
